In ChEMBL document CHEMBL1144430, “Convergent synthesis and pharmacology of substituted tetrazolyl-2-amino-3-(3-hydroxy-5-methyl-4-isoxazolyl)propionic acid analogues” (J Med Chem, 2005):

How the values were obtained:
[1] = target: Glutamate receptor ionotropic, AMPA (Rattus norvegicus, UniProt P19490+P19491+P19492+P19493); test: Displacement of [3H]AMPA from Ionotropic glutamate receptor of in rat brain synaptosomes; type: subcellular
[2] = target: Glutamate NMDA receptor; test: Displacement of [3H]-CGP- 39653 from N-methyl-D-aspartate glutamate receptor of rat brain synaptosomes; type: subcellular
[3] = target: Glutamate receptor ionotropic, kainate; test: Displacement of [3H]KA from glutamate receptor of rat brain synaptosomes; type: subcellular
[4] = target: Glutamate receptor ionotropic, kainate 1 (Homo sapiens, UniProt P39086); test: Binding affinity for kainate Glutamate receptor GluR5 expressed in Sf9 cells
Glutamate receptor ionotropic, kainate 1, sequence (P39086 whole entry): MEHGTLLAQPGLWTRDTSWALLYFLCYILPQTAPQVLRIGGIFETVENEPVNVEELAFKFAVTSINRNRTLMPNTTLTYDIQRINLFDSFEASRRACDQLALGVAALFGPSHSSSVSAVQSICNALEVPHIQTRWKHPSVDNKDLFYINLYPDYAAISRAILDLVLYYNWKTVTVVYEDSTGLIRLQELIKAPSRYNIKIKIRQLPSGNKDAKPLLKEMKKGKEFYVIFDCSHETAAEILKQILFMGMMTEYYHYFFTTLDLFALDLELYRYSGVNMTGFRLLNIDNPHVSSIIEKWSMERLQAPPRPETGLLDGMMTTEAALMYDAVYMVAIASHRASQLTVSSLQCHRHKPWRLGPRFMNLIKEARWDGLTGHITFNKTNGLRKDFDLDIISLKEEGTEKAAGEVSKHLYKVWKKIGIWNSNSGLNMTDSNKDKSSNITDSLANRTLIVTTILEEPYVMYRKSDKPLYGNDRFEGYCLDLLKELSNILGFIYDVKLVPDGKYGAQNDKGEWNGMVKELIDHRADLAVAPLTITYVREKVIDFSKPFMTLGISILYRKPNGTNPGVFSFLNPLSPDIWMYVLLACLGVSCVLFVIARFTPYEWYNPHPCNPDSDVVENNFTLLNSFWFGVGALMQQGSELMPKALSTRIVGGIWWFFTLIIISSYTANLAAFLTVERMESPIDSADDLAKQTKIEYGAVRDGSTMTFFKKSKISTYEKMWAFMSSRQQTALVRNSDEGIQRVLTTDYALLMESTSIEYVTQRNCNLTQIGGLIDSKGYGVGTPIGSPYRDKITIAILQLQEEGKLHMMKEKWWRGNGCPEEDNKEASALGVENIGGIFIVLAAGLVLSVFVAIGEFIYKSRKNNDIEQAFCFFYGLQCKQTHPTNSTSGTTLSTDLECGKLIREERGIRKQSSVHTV

[5] = target: Glutamate receptor ionotropic, kainate 2 (Homo sapiens, UniProt Q13002); test: Binding affinity for kainate Glutamate receptor GluR6 expressed in Sf9 cells
Glutamate receptor ionotropic, kainate 2, sequence (Q13002 whole entry): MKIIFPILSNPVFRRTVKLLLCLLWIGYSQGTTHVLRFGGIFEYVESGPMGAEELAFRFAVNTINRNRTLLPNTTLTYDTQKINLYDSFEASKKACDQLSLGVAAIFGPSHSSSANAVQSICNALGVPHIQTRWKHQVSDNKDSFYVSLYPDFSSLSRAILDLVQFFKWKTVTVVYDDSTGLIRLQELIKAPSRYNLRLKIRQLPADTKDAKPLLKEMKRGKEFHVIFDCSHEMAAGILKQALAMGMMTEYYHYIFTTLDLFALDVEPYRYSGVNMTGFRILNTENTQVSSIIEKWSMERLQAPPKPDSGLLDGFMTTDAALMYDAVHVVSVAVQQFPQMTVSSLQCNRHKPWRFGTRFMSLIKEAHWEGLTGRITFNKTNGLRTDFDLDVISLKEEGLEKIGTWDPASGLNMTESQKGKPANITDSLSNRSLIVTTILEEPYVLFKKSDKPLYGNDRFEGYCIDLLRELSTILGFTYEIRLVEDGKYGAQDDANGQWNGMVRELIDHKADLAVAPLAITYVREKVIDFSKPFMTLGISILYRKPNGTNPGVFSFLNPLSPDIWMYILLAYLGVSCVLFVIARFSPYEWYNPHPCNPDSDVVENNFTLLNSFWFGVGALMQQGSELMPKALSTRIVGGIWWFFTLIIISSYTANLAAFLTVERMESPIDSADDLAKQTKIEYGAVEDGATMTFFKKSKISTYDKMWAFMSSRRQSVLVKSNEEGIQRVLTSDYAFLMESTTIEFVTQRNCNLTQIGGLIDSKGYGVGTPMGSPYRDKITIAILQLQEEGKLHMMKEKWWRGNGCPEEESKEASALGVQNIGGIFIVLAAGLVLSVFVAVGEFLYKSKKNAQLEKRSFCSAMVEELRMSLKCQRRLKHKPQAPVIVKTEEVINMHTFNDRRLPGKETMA

[6] = target: Glutamate receptor 1 (Homo sapiens, UniProt P42261); test: Binding affinity for ionotropic Glutamate receptor AMPA 1 expressed in Sf9 cells
Glutamate receptor 1, sequence (P42261 whole entry): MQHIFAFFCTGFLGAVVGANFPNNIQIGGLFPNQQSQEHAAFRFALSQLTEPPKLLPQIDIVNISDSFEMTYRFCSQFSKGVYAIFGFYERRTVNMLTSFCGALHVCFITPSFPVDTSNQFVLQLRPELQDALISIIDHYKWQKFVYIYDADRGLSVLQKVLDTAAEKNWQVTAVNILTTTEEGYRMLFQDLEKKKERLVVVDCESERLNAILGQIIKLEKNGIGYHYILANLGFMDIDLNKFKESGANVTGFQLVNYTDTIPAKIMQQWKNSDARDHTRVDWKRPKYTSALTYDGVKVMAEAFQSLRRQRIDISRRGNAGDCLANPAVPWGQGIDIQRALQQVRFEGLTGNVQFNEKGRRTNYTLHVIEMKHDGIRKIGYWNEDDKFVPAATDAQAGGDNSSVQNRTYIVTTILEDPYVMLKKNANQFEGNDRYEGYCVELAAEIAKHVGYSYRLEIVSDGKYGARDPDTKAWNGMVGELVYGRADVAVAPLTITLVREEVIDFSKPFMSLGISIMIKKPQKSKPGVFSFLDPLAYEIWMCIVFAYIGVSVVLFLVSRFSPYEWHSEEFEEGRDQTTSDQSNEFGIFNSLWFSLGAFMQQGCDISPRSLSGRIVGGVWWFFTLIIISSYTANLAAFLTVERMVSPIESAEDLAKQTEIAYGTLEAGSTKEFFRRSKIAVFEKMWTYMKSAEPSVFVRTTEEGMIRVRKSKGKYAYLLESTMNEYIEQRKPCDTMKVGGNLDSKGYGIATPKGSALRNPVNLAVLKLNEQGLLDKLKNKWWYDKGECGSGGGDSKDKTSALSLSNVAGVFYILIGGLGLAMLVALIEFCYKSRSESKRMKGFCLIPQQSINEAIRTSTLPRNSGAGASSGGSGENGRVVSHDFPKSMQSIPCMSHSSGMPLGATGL

[7] = target: Glutamate receptor 2 (Homo sapiens, UniProt P42262); test: Binding affinity for ionotropic Glutamate receptor AMPA 2 expressed in Sf9 cells
[8] = target: Glutamate receptor 4 (Homo sapiens, UniProt P48058); test: Binding affinity for ionotropic Glutamate receptor AMPA 4 expressed in Sf9 cells
Glutamate receptor 4, sequence (P48058 whole entry): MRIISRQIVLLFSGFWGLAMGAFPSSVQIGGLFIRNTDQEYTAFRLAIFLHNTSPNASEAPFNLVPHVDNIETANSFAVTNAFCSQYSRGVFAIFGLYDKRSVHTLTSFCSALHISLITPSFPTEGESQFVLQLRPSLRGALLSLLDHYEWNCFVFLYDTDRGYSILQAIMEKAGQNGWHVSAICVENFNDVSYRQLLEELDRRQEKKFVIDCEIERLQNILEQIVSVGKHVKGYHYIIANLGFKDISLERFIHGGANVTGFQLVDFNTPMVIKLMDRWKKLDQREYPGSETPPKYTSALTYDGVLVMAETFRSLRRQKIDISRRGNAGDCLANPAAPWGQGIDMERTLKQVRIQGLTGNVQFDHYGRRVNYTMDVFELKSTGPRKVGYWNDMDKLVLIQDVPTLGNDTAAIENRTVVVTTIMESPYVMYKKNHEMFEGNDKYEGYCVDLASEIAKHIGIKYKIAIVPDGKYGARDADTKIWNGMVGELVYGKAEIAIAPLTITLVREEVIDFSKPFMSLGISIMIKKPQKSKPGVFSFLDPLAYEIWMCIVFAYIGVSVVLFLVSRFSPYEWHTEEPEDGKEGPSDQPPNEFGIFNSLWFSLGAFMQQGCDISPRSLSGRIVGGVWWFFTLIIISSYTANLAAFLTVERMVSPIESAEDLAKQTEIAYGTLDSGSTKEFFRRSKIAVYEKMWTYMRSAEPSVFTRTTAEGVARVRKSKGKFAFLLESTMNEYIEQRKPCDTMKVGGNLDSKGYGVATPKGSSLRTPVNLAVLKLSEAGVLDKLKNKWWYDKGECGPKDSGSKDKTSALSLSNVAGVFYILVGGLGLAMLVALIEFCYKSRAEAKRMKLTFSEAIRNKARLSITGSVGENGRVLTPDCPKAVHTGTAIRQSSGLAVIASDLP

[9] = target: Glutamate receptor 3 (Homo sapiens, UniProt P42263); test: Binding affinity for ionotropic Glutamate receptor AMPA 3 expressed in Sf9 cells
Glutamate receptor 3, sequence (P42263 whole entry): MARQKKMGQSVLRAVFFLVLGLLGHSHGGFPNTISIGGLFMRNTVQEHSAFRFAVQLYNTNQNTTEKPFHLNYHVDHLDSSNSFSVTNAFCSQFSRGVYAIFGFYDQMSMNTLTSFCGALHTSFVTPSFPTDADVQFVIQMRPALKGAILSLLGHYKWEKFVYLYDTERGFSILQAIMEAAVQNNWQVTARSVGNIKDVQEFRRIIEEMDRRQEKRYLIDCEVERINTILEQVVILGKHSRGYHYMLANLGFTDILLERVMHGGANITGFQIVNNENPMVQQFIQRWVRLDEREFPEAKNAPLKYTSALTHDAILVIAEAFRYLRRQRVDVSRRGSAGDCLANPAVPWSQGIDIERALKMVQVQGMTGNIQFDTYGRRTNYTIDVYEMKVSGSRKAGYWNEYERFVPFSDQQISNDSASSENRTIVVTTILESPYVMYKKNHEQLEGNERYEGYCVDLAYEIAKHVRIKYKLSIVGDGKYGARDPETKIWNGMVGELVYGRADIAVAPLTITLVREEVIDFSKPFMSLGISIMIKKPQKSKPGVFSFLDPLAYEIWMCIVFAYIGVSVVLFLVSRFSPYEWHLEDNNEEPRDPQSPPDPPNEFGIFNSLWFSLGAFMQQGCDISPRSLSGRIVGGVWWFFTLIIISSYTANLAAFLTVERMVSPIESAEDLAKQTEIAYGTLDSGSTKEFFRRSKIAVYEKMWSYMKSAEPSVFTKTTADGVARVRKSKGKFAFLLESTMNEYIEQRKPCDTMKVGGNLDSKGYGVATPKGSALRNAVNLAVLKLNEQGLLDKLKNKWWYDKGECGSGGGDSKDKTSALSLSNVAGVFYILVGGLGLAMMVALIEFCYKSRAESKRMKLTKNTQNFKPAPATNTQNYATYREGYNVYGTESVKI

[10] = In vitro activity at Ionotropic glutamate receptor using cortical wedge assays

| Compound | IC50 [1] [µM] | Ki [2] [µM] | IC50 [3] [µM] | Ki [4] [µM] | Ki [5] [µM] | Ki [6] [µM] | Ki [7] [µM] | Ki [8] [µM] | Ki [9] [µM] | EC50 [10] [µM] |
| --- | --- | --- | --- | --- | --- | --- | --- | --- | --- | --- |
| Cn1nnc(-c2onc(O)c2CC(N)C(=O)O)n1 (racemic) | 0.027 | > 100 | – | – | – | – | – | – | – | – |
| CC(C)n1nnnc1-c1onc(O)c1CC(N)C(=O)O (centres undefined) | > 100 | > 100 | > 100 | – | – | – | – | – | – | – |
| Cn1nnc(-c2o[nH]c(=O)c2C[C@H](N)C(=O)O)n1 | 0.009 | > 1000 | – | 0.081 | 18.8 | – | – | – | – | – |
| CCCn1nnnc1-c1onc(O)c1CC(N)C(=O)O (centres undefined) | > 100 | > 100 | > 100 | – | – | – | – | – | – | – |

Other lines, results leading:

| IC50 [1] [µM] | Ki [2] [µM] | IC50 [3] [µM] | Ki [4] [µM] | Ki [5] [µM] | Ki [6] [µM] | Ki [7] [µM] | Ki [8] [µM] | Ki [9] [µM] | EC50 [10] [µM] | Compound |
| --- | --- | --- | --- | --- | --- | --- | --- | --- | --- | --- |
| 0.134 | > 100 | > 100 | 2.92 | > 100 | 0.145 | 0.0802 | 0.0444 | 0.0448 | 3.5 | CCn1nnc(-c2o[nH]c(=O)c2CC(N)C(=O)O)n1 (centres undefined) |
| 54 | > 100 | > 100 | – | – | – | – | – | – | > 1000 | Cn1nnnc1-c1onc(O)c1CC(N)C(=O)O (centres undefined) |
| 2.5 | > 100 | > 100 | 5.45 | > 100 | 5.15 | 1.61 | 0.732 | 1.18 | 32 | CCCn1nnc(-c2onc(O)c2CC(N)C(=O)O)n1 (centres undefined) |
| 6.2 | > 100 | > 100 | 34.2 | > 100 | 10 | 2.93 | 2.35 | 3.71 | 71 | CC(C)n1nnc(-c2onc(O)c2CC(N)C(=O)O)n1 (centres undefined) |
| 27 | > 100 | > 100 | – | – | – | – | – | – | – | CCn1nnnc1-c1onc(O)c1CC(N)C(=O)O (centres undefined) |
